Target: T1, MDM2 (MDM2-MDM4 RING domain heterodimer) (Homo sapiens, UniProt O15151+Q00987)
T1 construct: RING domain heterodimers of MDM2-MDM4, co-expressed in E. coli; with MDM4 (RING domain)
Assay: microscale thermophoresis; thermofluor (Tm […] to […] °C); in vitro ubiquitination activation
Assay type: binding

T1 sequence (Q00987 428-491 limits assumed): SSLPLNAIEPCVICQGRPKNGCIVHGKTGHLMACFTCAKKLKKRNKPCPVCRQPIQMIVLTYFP
T1 sequence (O15151 428-490 limits assumed): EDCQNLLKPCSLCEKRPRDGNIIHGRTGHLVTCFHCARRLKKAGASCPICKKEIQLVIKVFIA

Kd: ~308 nM
Structure (SMILES): O=C1Nc2ccc(Br)cc2C12NN=C(c1ccccc1)S2 (stereo not shown) [MMRi36]
